Laboratory results published in patent EP2876156A1 (COMMISSARIAT A L'ENERGIE ATOMIQUE ET AUX ENERGIES …, priority 2013, dated 2015).
Read-outs that look alike come from different tables or passages of the source.

Assays:
Type in all cases: biochemical
[1] = target: T1, ENZ1 SEQ ID N°1 (Catenulispora acidiphila, UniProt C7QJ42); assay: Substrate selectivity screening of hydroxylase (conversion by HPLC after Fmoc-Cl derivatization)
T1 construct: His6 (hexahistidine, inserted after the initial methionine) (N); made in house; host or cells: E. coli BL21(DE3) plysE
T1 sequence (C7QJ42 1-358): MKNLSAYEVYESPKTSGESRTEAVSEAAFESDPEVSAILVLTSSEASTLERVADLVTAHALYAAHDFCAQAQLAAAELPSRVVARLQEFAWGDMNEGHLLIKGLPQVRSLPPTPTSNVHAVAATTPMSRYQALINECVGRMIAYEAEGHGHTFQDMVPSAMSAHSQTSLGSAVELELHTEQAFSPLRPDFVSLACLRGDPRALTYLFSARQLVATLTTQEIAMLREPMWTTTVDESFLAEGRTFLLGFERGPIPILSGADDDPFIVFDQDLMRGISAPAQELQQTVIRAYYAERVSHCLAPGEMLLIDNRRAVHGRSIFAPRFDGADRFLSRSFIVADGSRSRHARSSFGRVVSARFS
Experimental: (§1) Enzymatic reaction medium (0.2 µmole, leq.), borate buffer 0,2M pH 7.7 (80 µL) and Fmoc-Cl solution7.5 mM in acetone (100 µL, 0.75 µmole, 3.75 eq) were hand shaked in a closed 1.50 mL eppendorf for one minute. The aqueous layer was extracted with petroleum ether (3*1 mL) to eliminate excess of Fmoc-Cl. 70 µL of the aqueous phase were withdrawn, diluted with 70 µL of acetonitrile and injected into the HPLC. For substrates with two amine functions, 100 µL of Fmoc-Cl solution 15 mM were used.
(§2) Conditions for HPLC analysis: Atlantis® T3 (3 µm 4.5*150 mm) at 35°C with the gradient 50-86% eluent B (MeCN + 0.1% TFA) and eluent A (H2O + 0.1% TFA) in 20 min at 1 mL/min.
(§3) Enzymes (0.08 mg/mL) were screened against substrates (molar ratio α-ketoglutarate/substrate 15/10) in Hepes buffer 50 mM pH 7,5, with Mohr's salt at 1mM and without sodium ascorbate, at room temperature for three hours. The potential conversions of the substrates were determined by HPLC after Fmoc-Cl derivatization as section III here above.

[2] = target: T2, ENZ4 SEQ ID NO:4 (Catenulispora acidiphila, UniProt C7Q942); assay: as above
T2 construct: His6 (hexahistidine, inserted after the initial methionine) (N); made in house; host or cells: E. coli BL21(DE3) plysE
T2 sequence (C7Q942 1-343): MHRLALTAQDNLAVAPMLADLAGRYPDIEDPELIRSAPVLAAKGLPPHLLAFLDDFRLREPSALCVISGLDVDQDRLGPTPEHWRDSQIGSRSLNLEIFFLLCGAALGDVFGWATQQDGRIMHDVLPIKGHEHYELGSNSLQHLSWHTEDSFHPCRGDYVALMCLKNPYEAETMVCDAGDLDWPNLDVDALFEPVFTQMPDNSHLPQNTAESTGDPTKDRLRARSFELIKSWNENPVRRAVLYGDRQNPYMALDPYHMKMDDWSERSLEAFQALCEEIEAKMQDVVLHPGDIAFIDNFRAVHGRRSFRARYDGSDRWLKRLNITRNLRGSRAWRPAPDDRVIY
Experimental: as §1, §2, §3

[3] = target: T3, ENZ2 SEQ ID NO:2 (Flavobacterium johnsoniae, UniProt A5FF23)
T3 construct: His6 (hexahistidine, inserted after the initial methionine) (N); made in house; host or cells: E. coli BL21(DE3) plysE
T3 sequence (A5FF23 1-370): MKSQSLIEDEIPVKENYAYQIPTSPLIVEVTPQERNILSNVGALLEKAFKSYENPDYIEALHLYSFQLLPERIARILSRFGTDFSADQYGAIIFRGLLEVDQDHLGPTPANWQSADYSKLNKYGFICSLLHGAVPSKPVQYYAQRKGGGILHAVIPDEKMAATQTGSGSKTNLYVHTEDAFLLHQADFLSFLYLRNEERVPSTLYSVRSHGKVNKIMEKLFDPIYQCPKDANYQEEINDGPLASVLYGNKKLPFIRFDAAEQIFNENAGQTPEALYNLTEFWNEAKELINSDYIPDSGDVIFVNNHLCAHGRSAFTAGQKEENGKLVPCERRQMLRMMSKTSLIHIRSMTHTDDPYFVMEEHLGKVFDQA
Experimental: as §1, §2, §3

[4] = target: T4, ENZ3 SEQ ID NO:3 (Chitinophaga pinensis, UniProt C7PLM6)
T4 construct: His6 (hexahistidine, inserted after the initial methionine) (N); made in house; host or cells: E. coli BL21(DE3) plysE
T4 sequence (C7PLM6 1-382): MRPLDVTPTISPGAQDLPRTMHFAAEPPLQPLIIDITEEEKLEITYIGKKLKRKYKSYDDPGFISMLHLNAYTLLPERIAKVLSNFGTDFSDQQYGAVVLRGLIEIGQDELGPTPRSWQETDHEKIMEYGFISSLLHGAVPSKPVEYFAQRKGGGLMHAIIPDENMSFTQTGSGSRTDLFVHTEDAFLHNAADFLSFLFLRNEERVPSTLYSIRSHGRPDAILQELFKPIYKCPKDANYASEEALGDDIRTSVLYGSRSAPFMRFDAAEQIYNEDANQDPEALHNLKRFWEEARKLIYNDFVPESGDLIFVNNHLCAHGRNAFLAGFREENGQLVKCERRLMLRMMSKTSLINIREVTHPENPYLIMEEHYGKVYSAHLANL
Experimental: as §1, §2, §3

[5] = enzyme 0.08 mg/mL, molar ratio α-ketoglutarate/substrate 15/10, Hepes buffer 50 mM pH 7,5, Mohr's salt 1mM, without sodium ascorbate, room temperature, three hours

Row | Compound | potential conversions of the substrates, ENZ1 SEQ ID N°1 [1, 5] | potential conversions of the substrates, ENZ4 SEQ ID NO:4 [2, 5] | potential conversions of the substrates, ENZ2 SEQ ID NO:2 [3, 5] | potential conversions of the substrates, ENZ3 SEQ ID NO:3 [4, 5] | potential conversions of the substrates, ENZ1 SEQ ID N°1 ([1]; pH 7) | potential conversions of the substrates, ENZ4 SEQ ID NO:4 ([2]; pH 7) | potential conversions of the substrates, ENZ2 SEQ ID NO:2 ([3]; pH 7) | potential conversions of the substrates, ENZ3 SEQ ID NO:3 ([4]; pH 7)
1 | NCCCCCN [Cadaverine] | negative | negative | negative | negative |  |  |  | 
2 | NC[C@H](O)CC[C@H](N)C(=O)O [(5R)- hydroxy-L-lysine] | positive | negative | positive | positive |  |  |  | 
3 | NCCSC[C@H](N)C(=O)O [Thia-L-lysine] | negative | negative | positive | positive |  |  |  | 
4 | COC(=O)[C@@H](N)CCCNC(=N)N [L-arginine methyl ester] | negative | negative | negative | negative |  |  |  | 
5 | N[C@H]1CCCCNC1=O [L-(-)-α-Amino-ε-caprolactam] | negative | negative | negative | negative |  |  |  | 
6 | NCCCCCC(=O)O [6-aminohexanoic acid] | negative | negative | negative | negative |  |  |  | 
7 | NCCCC[C@H](NC(=O)[C@@H](N)CCCCN)C(=O)O [L-Lysil-L-lysine] | negative | negative | negative | negative |  |  |  | 
8 | NC(=O)NCCC[C@H](N)C(=O)O [L-citrulline] | negative | negative | negative | negative |  |  |  | 
9 | CCCCCC(N)C(=O)O (centres unmarked) [2-aminoheptanoic acid] | negative | negative | negative | negative |  |  |  | 
10 | CC(=O)N[C@@H](CCCNC(=N)N)C(=O)O [Nα-acetyl-L-arginine] | negative | negative | negative | negative |  |  |  | 
11 | COC(=O)[C@@H](N)CCCCN [L-lysine methyl ester] | negative | negative | negative | negative |  |  |  | 
12 | NC(CCCC(=O)O)C(=O)O (centres unmarked) [2-aminoadipic acid] | negative | negative | negative | negative |  |  |  | 
13 | NCCC[C@H](O)[C@H](N)C(=O)O [(3S)- hydroxy-L-lysine] |  | negative | positive | positive |  |  |  | 
14 | NCCCCN [Putrescine] |  |  |  |  | negative | negative | negative | negative
15 | NCCCC[C@@H](N)C(=O)O [D-lysine] | negative | negative | negative | negative |  |  |  | 
16 | C[N+](C)(C)CCCC[C@H](N)C(=O)O [Nε-Me3-L-lysine] | negative | negative | negative | negative |  |  |  | 
17 | CNCCCC[C@H](N)C(=O)O [Nε-Me-L-lysine] | negative | negative | negative | negative |  |  |  | 
18 | CC(=O)N[C@@H](CCCCN)C(=O)O [Nα-acetyl-L-lysine] | negative | negative | negative | negative |  |  |  | 
19 | NCCC[C@H](N)CC(=O)O [β-L-lysine] | negative | negative | negative | negative |  |  |  | 
20 | N=C(N)NCCC[C@@H](N)C(=O)O [D-arginine] | negative | negative | negative | negative |  |  |  | 
21 | CC(=O)N[C@@H](CCCN)C(=O)O [Nα-acetyl-L-ornithine] | negative | negative | negative | negative |  |  |  | 
